From ChEMBL document CHEMBL5506037, “Synthesis of Heterocyclic Ring-Fused Bisnoralcohol Derivatives as Novel Small-Molecule Antiosteoporosis Agents” (J Med Chem, 2024)
pIC50: −log10 of the molar value.

What was measured:
[1] = Cytotoxicity against M-CSF induced C57BL/6J mouse BMMC cells assessed as cell viability at 10 uM incubated for 48 hrs by CCK-8 assay relative to control; type: toxicity, cell-based; settings: read-out: Activity
[2] = test system: BMMC; assay: Anti-osteoclastogenesis activity in M-CSF/RANKL-induced C57BL/6J mouse BMMC cells assessed as inhibition of osteoclast differentiation at 0.1 uM incubated for 7 days by TRAP staining based analysis relative to control; type: functional; settings: 168 h, time 7 day
[3] = test system: BMMC; assay: Anti-osteoclastogenesis activity in M-CSF/RANKL-induced C57BL/6J mouse BMMC cells assessed as inhibition of osteoclast differentiation at 1 uM incubated for 7 days by TRAP staining based analysis relative to control; type: functional; settings: 168 h, time 7 day
[4] = test system: BMMC; assay: Anti-osteoclastogenesis activity in M-CSF/RANKL-induced C57BL/6J mouse BMMC cells assessed as inhibition of osteoclast differentiation at 10 uM incubated for 7 days by TRAP staining based analysis relative to control; type: functional; settings: 168 h, time 7 day
[5] = test system: BMMC; assay: Anti-osteoclastogenesis activity in M-CSF/RANKL-induced C57BL/6J mouse BMMC cells assessed as inhibition of osteoclast differentiation at 5 uM incubated for 7 days by TRAP staining based analysis relative to control; type: functional; settings: 168 h, time 7 day
[6] = test system: BMMC; assay: Anti-osteoclastogenesis activity in M-CSF/RANKL-induced C57BL/6J mouse BMMC cells assessed as inhibition of osteoclast differentiation incubated for 7 days by TRAP staining based analysis; type: functional, cell-based; settings: 168 h
[7] = test system: Mus musculus; assay: Anti-osteoporosis activity in ovariectomized C57BL/6 mouse assessed as prevention of bone loss by measuring decrease in trabecular spacing at 25 ug/kg, sc administered every day for 6 weeks by micro-CT analysis relative to control; type: functional; parameters: scale not given: the % may be the effect or the level left
[8] = Toxicity in ovariectomized female C57BL/6 mouse assessed as reduction in body weight at 25 ug/kg, sc administered every day for 6 weeks; type: organism-based; settings: in vivo, 0.025 mg/kg, 1008 h, dose 25 µg/kg
[9] = test system: Mus musculus; assay: Anti-osteoporosis activity in ovariectomized C57BL/6 mouse assessed as prevention of bone loss by measuring increase in trabecular thickness at 25 ug/kg, sc administered every day for 6 weeks by micro-CT analysis relative to control; type: functional
[10] = test system: Mus musculus; assay: Anti-osteoporosis activity in ovariectomized C57BL/6 mouse assessed as prevention of bone loss by measuring increase in trabecular number at 25 ug/kg, sc administered every day for 6 weeks by micro-CT analysis relative to control; type: functional
[11] = test system: Mus musculus; assay: Anti-osteoporosis activity in ovariectomized C57BL/6 mouse assessed as prevention of bone loss by measuring increase in BV/TV at 25 ug/kg, sc administered every day for 6 weeks by micro-CT analysis relative to control; type: functional; settings: dose 25 µg/kg

| Structure (SMILES) | viability at 48 h, 10 µM [1] | inhibition at 0.1 µM [2] | inhibition at 1 µM [3] | inhibition at 10 µM [4] | inhibition at 5 µM [5] | other results |
| --- | --- | --- | --- | --- | --- | --- |
| CCNC(=O)CCC[C@@H](C)[C@H]1CC[C@H]2[C@@H]3CC=C4C(C)(C)c5nnsc5C[C@]4(C)[C@H]3CC[C@]12C | ≥ 100% | 15.8% | 100% | – | – | – |
| C[C@H](C(=O)Nc1ccncc1)[C@H]1CC[C@H]2[C@@H]3CC=C4C(C)(C)c5nnsc5C[C@]4(C)[C@H]3CC[C@]12C | ≥ 100% | 30.2% | 85.5% | – | – | – |
| Cc1nc2c(o1)C(C)(C)C1=CC[C@H]3[C@@H]4CC[C@H]([C@H](C)CO)[C@@]4(C)CC[C@@H]3[C@@]1(C)C2 | ≥ 100% | – | 43% | 89.8% | 73.8% | – |
| C[C@H](CO)[C@H]1CC[C@H]2[C@@H]3CCC4=CC(=O)CC[C@]4(C)[C@H]3CC[C@]12C | ≥ 100% | – | – | 100% | 78.6% | pIC50 [6]: 5.63 |
| C[C@H](C(=O)Nc1ccc(F)cc1)[C@H]1CC[C@H]2[C@@H]3CC=C4C(C)(C)c5nnsc5C[C@]4(C)[C@H]3CC[C@]12C | ≥ 100% | 47.5% | 91.9% | – | – | – |
| CNC(=O)[C@@H](C)[C@H]1CC[C@H]2[C@@H]3CC=C4C(C)(C)c5nnsc5C[C@]4(C)[C@H]3CC[C@]12C | ≥ 100% | 49.3% | 100% | – | – | – |
| C[C@H](CO)[C@H]1CC[C@H]2[C@@H]3CC=C4C(C)(C)c5nnsc5C[C@]4(C)[C@H]3CC[C@]12C | ≥ 100% | – | 75.8% | 100% | 100% | – |
| C[C@H](CO)[C@H]1CC[C@H]2[C@@H]3CC=C4C(C)(C)c5c(cnn5-c5ccccc5)C[C@]4(C)[C@H]3CC[C@]12C | ≥ 100% | – | 0% | 18.9% | 0% | – |
| C[C@H](CO)[C@H]1CC[C@H]2[C@@H]3CC=C4C(C)(C)c5[nH]ncc5C[C@]4(C)[C@H]3CC[C@]12C | ≥ 100% | – | 34.6% | 100% | 87% | – |
| C[C@H](CO)[C@H]1CC[C@H]2[C@@H]3CC=C4C(C)(C)c5nc6ccccc6cc5C[C@]4(C)[C@H]3CC[C@]12C | ≥ 100% | – | 37.8% | 93.9% | 47.2% | – |
| C[C@H](C(=O)Nc1ccc(Br)cc1)[C@H]1CC[C@H]2[C@@H]3CC=C4C(C)(C)c5nnsc5C[C@]4(C)[C@H]3CC[C@]12C | ≥ 100% | 0% | 65.1% | – | – | – |
| CCCCNC(=O)[C@@H](C)[C@H]1CC[C@H]2[C@@H]3CC=C4C(C)(C)c5nnsc5C[C@]4(C)[C@H]3CC[C@]12C | ≥ 100% | 76.3% | 100% | – | – | – |
| C[C@H](C(=O)N1CCOCC1)[C@H]1CC[C@H]2[C@@H]3CC=C4C(C)(C)c5nnsc5C[C@]4(C)[C@H]3CC[C@]12C | ≥ 100% | 53.5% | 91.9% | – | – | – |
| C=CCNC(=O)[C@@H](C)[C@H]1CC[C@H]2[C@@H]3CC=C4C(C)(C)c5nnsc5C[C@]4(C)[C@H]3CC[C@]12C | ≥ 100% | 61.1% | 98.3% | – | – | – |
| C[C@H](C(=O)NC1CCCCC1)[C@H]1CC[C@H]2[C@@H]3CC=C4C(C)(C)c5nnsc5C[C@]4(C)[C@H]3CC[C@]12C | ≥ 100% | 54% | 100% | – | – | – |
| C[C@H](CO)[C@H]1CC[C@H]2[C@@H]3CC=C4C(C)(C)c5nccnc5C[C@]4(C)[C@H]3CC[C@]12C | ≥ 100% | – | 13.9% | 67.8% | 44.9% | – |
| C[C@H](CO)[C@H]1CC[C@H]2[C@@H]3CC=C4C(C)(C)c5nc(N)ncc5C[C@]4(C)[C@H]3CC[C@]12C | ≥ 100% | – | 25.9% | 100% | 87.3% | – |
| CC(C)CNC(=O)[C@@H](C)[C@H]1CC[C@H]2[C@@H]3CC=C4C(C)(C)c5nnsc5C[C@]4(C)[C@H]3CC[C@]12C | ≥ 100% | 72.1% | 100% | – | – | – |
| CCNC(=O)CCCC[C@@H](C)[C@H]1CC[C@H]2[C@@H]3CC=C4C(C)(C)c5nnsc5C[C@]4(C)[C@H]3CC[C@]12C | ≥ 100% | 7.4% | 98.8% | – | – | – |
| CCCCCCNC(=O)[C@@H](C)[C@H]1CC[C@H]2[C@@H]3CC=C4C(C)(C)c5nnsc5C[C@]4(C)[C@H]3CC[C@]12C | ≥ 100% | 50.1% | 87.2% | – | – | – |
| COc1ccc(NC(=O)[C@@H](C)[C@H]2CC[C@H]3[C@@H]4CC=C5C(C)(C)c6nnsc6C[C@]5(C)[C@H]4CC[C@]23C)cc1 | ≥ 100% | 69.6% | 100% | – | – | – |
| CCCNC(=O)[C@@H](C)[C@H]1CC[C@H]2[C@@H]3CC=C4C(C)(C)c5nnsc5C[C@]4(C)[C@H]3CC[C@]12C | ≥ 100% | 72.7% | 100% | – | – | – |
| C[C@H](CO)[C@H]1CC[C@H]2[C@@H]3CC=C4C(C)(C)c5nonc5C[C@]4(C)[C@H]3CC[C@]12C | ≥ 100% | – | 42.4% | 100% | 90.5% | – |
| CCNC(=O)C[C@@H](C)[C@H]1CC[C@H]2[C@@H]3CC=C4C(C)(C)c5nnsc5C[C@]4(C)[C@H]3CC[C@]12C | ≥ 100% | 21.9% | 99.5% | – | – | – |
| C[C@H](C(=O)Nc1nccs1)[C@H]1CC[C@H]2[C@@H]3CC=C4C(C)(C)c5nnsc5C[C@]4(C)[C@H]3CC[C@]12C | ≥ 100% | 19.2% | 85.9% | – | – | – |
| C[C@H](C(=O)O)[C@H]1CC[C@H]2[C@@H]3CC=C4C(C)(C)c5nnsc5C[C@]4(C)[C@H]3CC[C@]12C | ≥ 100% | 45.8% | 86.8% | – | – | – |
| CCNC(=O)CC[C@@H](C)[C@H]1CC[C@H]2[C@@H]3CC=C4C(C)(C)c5nnsc5C[C@]4(C)[C@H]3CC[C@]12C | ≥ 100% | 46.4% | 100% | – | – | – |
| C[C@H](C(=O)Nc1ccc(Cl)cc1)[C@H]1CC[C@H]2[C@@H]3CC=C4C(C)(C)c5nnsc5C[C@]4(C)[C@H]3CC[C@]12C | ≥ 100% | 45.2% | 81% | – | – | – |
| CC[C@H](C)[C@H](NC(=O)[C@H](CCC(=O)O)NC(=O)[C@H](CO)NC(=O)[C@@H](NC(=O)[C@@H](N)CO)C(C)C)C(=O)N[C@@H](CCC(N)=O)C(=O)N[C@@H](CC(C)C)C(=O)N[C@@H](CCSC)C(=O)N[C@@H](Cc1cnc[nH]1)C(=O)N[C@@H](CC(N)=O)C(=O)N[C@@H](CC(C)C)C(=O)NCC(=O)N[C@@H](CCCCN)C(=O)N[C@@H](Cc1cnc[nH]1)C(=O)N[C@@H](CC(C)C)C(=O)N[C@@H](CC(N)=O)C(=O)N[C@@H](CO)C(=O)N[C@@H](CCSC)C(=O)N[C@@H](CCC(=O)O)C(=O)N[C@@H](CCCNC(=N)N)C(=O)N[C@H](C(=O)N[C@@H](CCC(=O)O)C(=O)N[C@@H](Cc1c[nH]c2ccccc12)C(=O)N[C@@H](CC(C)C)C(=O)N[C@@H](CCCNC(=N)N)C(=O)N[C@@H](CCCCN)C(=O)N[C@@H](CCCCN)C(=O)N[C@@H](CC(C)C)C(=O)N[C@@H](CCC(N)=O)C(=O)N[C@@H](CC(=O)O)C(=O)N[C@H](C(=O)N[C@@H](Cc1cnc[nH]1)C(=O)N[C@@H](CC(N)=O)C(=O)N[C@@H](Cc1ccccc1)C(=O)O)C(C)C)C(C)C [TERIPARATIDE] | – | – | – | – | – | Activity [7]: 52.76%; Activity [8]: Non-Toxic; Activity [9]: 86.08%; Activity [10]: 41.75%; Activity [11]: 81.68% |
